In general, DC50 refers to the concentration giving 50% degradation. The Dmax is the greatest extent of degradation seen.

This passage reports DC50 and Dmax results from patent publication EP4763839A1 (Pamplona Therapeutics (Shenzhen) Co., Ltd., priority 2023, dated 2025).

Where a name gives a salt, the structure may show the parent alone.

This assay addresses T1, IRAK4 (Homo sapiens, UniProt Q9NWZ3).
T1 sequence (Q9NWZ3 1-460): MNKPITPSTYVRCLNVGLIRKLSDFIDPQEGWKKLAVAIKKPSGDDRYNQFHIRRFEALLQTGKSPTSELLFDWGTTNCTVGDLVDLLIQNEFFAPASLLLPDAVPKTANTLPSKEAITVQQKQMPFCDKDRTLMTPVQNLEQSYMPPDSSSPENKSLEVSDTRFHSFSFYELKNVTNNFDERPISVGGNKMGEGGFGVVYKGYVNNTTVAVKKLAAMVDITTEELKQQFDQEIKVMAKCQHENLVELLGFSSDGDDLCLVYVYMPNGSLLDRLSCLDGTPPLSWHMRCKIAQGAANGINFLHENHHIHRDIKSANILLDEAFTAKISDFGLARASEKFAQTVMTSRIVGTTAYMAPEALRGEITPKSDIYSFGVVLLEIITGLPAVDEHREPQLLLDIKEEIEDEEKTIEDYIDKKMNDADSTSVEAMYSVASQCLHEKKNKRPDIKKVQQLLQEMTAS
Description: Degradation of IRAK4 in THP1 cells, Western blot. The class given is cell-based. The arrangement: Degradation of IRAK4 in THP1 by compound; host or cells: THP-1. Conditions: THP-1 cells, 24 hours of incubation; for DC50: IRAK4 protein by Western blot, read-out: DC50; for Dmax: maximum degradation rate, read-out: Dmax. As to the method:
After 24 hours of incubation, the cells were collected into 1.5 mL centrifuge tubes and centrifuged at 1,000 rpm for 5 minutes. […] The supernatants were collected, and the IRAK4 protein levels were respectively detected by Western blot (WB). The total protein concentration in the cell lysate supernatant was determined using a BCA protein quantification kit (NCM). Based on the total protein concentration detected by BCA, the samples were adjusted to 2 μg/μL using cell lysis buffer and 5×SDS-PAGE protein loading buffer (Beyotime), heated at 95°C for 5 minutes in a metal bath, and then placed on ice for an ice bath for 5 minutes before being used as the loading samples for Western blot analysis. Protein electrophoresis was performed using a 10% SDS-PAGE gel with a loading volume of 20 μL (total protein 40 μg) and Tris-SDS electrophoresis at a constant voltage of 80 V. After electrophoresis, the proteins on the gel were transferred to a 0.2 μm PVDF membrane (Immobilon) using a semi-dry transfer method at 0.5 A and 20 V for 60 minutes. After transfer, the membrane was placed in 5% skimmed milk and incubated at rt for 2 hours. After blocking, the PVDF membrane was incubated with primary antibody against IRAK4 (Abcam) at 4°C overnight. […] The color development and protein band imaging were performed using a chemiluminescence imaging system ([…] Technology Co., Ltd.). The protein bands were analyzed for grayscale values using Image J analysis software. The corrected grayscale values for each sample were calculated and then compared with those of the control group treated with DMSO alone to calculate the degradation rate.
On the technique in general: Immunoblotting shows a protein as a band on a membrane.

In the case of `Cn1c(=O)n(C2CCC(=O)NC2=O)c2cccc(NCCN3CC4(C3)CN(C(=O)c3ccc(-n5cc(NC(=O)c6cccc(-c7ccn[nH]7)n6)c(S(N)(=O)=O)n5)cc3)C4)c21` (stereo not shown) [Compound A343], the DC50 is less than 100 nM and the greatest degradation seen (Dmax) is greater than 60%.
As to `Cn1c(=O)n(C2CCC(=O)NC2=O)c2cccc(C#CCOC3CN(C(=O)c4ccc(-n5cc(NC(=O)c6cccc(-c7ccn[nH]7)n6)c(S(N)(=O)=O)n5)cc4)C3)c21` (stereo not shown) [Compound A348], the DC50 was less than 100 nM and the Dmax is greater than 60%.
For `N#Cc1ccnc(C(=O)Nc2cn(-c3ccc(N4CCN(CC5CCN(c6ccc(NC7CCC(=O)NC7=O)cc6F)CC5)CC4)cc3)nc2C(N)=O)c1` (stereo not shown) [Compound A349, N-(3-Carbamoyl-1-(4-(4-((1-(4-((2,6-dioxopiperidin-3-yl)amino)-2-fluorophenyl)piperidin-4-yl)methyl)piperazin-1-yl)phenyl)-1H-pyrazol-4-yl)-4-cyanopicolinamide] the same measures were greater than 1000 nM and less than 40%.
With `Cn1c(=O)n(C2CCC(=O)NC2=O)c2cccc(N3CCC(CCN4CCN(c5ccc(-n6cc(NC(=O)c7cccc(-c8ccn[nH]8)n7)c(S(N)(=O)=O)n6)cc5)CC4)CC3)c21` (stereo not shown) [Compound A350, N-(1-(4-(4-(2-(1-(1-(2,6-Dioxopiperidin-3-yl)-3-methyl-2-oxo-2,3-dihydro-1H-benzo[d]imidazol-4-yl)piperidin-4-yl)ethyl)piperazin-1-yl)phenyl)-3-sulfamoyl-1H-pyrazol-4-yl)-6-(1H-pyrazol-5-yl)picolinamide], the DC50 was less than 100 nM and the Dmax is greater than 60%.
Regarding `Cn1c(=O)n(C2CCC(=O)NC2=O)c2cccc(C#CCOC3CN(Cc4ccc(-n5cc(NC(=O)c6cccc(-c7ccn[nH]7)n6)c(S(N)(=O)=O)n5)cc4)C3)c21` (stereo not shown) [Compound A351, N-(1-(4-((3-((3-(1-(2,6-dioxopiperidin-3-yl)-3-methyl-2-oxo-2,3-dihydro-1H-benzo[d]imidazol-4-yl)prop-2-yn-1-yl)oxy)azetidin-1-yl)methyl)phenyl)-3-sulfamoyl-1H-pyrazol-4-yl)-6-(1H-pyrazol-5-yl)picolinamide], the DC50 lay in the range of 100 to 1000 nM and the Dmax lay within 40 to 60%.
For `Cn1c(=O)n(C2CCC(=O)NC2=O)c2cccc(N3CCC(N4CCN(Cc5ccc(-n6cc(NC(=O)c7cccc(-c8ccn[nH]8)n7)c(S(N)(=O)=O)n6)cc5)CC4)CC3)c21` (stereo not shown) [Compound A352] the same measures were less than 100 nM and greater than 60%.
Regarding `N#Cc1ccc(C(=O)Nc2cn(-c3ccc(N4CCN(CC5CCN(c6ccc(NC7CCC(=O)NC7=O)cc6F)CC5)CC4)cc3)nc2C(N)=O)nc1` (stereo not shown) [Compound A353, N-(3-Carbamoyl-1-(4-(4-((1-(4-((2,6-dioxopiperidin-3-yl)amino)-2-fluorophenyl)piperidin-4-yl)methyl)piperazin-1-yl)phenyl)-1H-pyrazol-4-yl)-5-cyanopicolinamide], the half-maximal degradation concentration (DC50) was greater than 1000 nM and the Dmax is less than 40%.
For `Cn1c(=O)n(C2CCC(=O)NC2=O)c2cccc(NCC3CC4(C3)CN(C(=O)c3ccc(-n5cc(NC(=O)c6cccc(-c7ccn[nH]7)n6)c(S(N)(=O)=O)n5)cc3)C4)c21` (stereo not shown) [Compound A354, N-(1-(4-(6-(((1-(2,6-Dioxopiperidin-3-yl)-3-methyl-2-oxo-2,3-dihydro-1H-benzo[d]imidazol-4-yl)amino)methyl)-2-azaspiro[3.3]heptane-2-carbonyl)phenyl)-3-sulfamoyl-1H-pyrazol-4-yl)-6-(1H-pyrazol-5-yl)picolinamide] the same measures were less than 100 nM and greater than 60%.
As for `NC(=O)c1nn(-c2ccc(N3CCN(C(=O)N4CCC(c5ccc(OC6CCC(=O)NC6=O)cc5F)CC4)CC3)cc2)cc1NC(=O)c1cccc(C(F)(F)F)n1` (stereo not shown) [Compound A355, N-(3-Carbamoyl-1-(4-(4-(4-(4-((2,6-dioxopiperidin-3-yl)oxy)-2-fluorophenyl)piperidine-1-carbonyl)piperazin-1-yl)phenyl)-1H-pyrazol-4-yl)-6-(trifluoromethyl)picolinamide], the DC50 is less than 100 nM and the Dmax was greater than 60%.
On to `Cn1c(=O)n(C2CCC(=O)NC2=O)c2cccc(NCCN3CCN(C(=O)c4ccc(-n5cc(NC(=O)c6cccc(-c7ccn[nH]7)n6)c(S(N)(=O)=O)n5)cc4)CC3)c21` (stereo not shown) [Compound A356, N-(1-(4-(4-(2-((1-(2,6-Dioxopiperidin-3-yl)-3-methyl-2-oxo-2,3-dihydro-1H-benzo[d]imidazol-4-yl)amino)ethyl)piperazine-1-carbonyl)phenyl)-3-sulfamoyl-1H-pyrazol-4-yl)-6-(1H-pyrazol-5-yl)picolinamide], for which the DC50 was less than 100 nM and the Dmax was greater than 60%.
For `Cn1c(=O)n(C2CCC(=O)NC2=O)c2cccc(C(=O)N3CCC4(CCN(Cc5ccc(-n6cc(NC(=O)c7cccc(-c8ccn[nH]8)n7)c(S(N)(=O)=O)n6)cc5)C4)CC3)c21` (stereo not shown) [Compound A357, N-(1-(4-((8-(1-(2,6-Dioxopiperidin-3-yl)-3-methyl-2-oxo-2,3-dihydro-1H-benzo[d]imidazole-4-carbonyl)-2,8-diazaspiro[4.5]decan-2-yl)methyl)phenyl)-3-sulfamoyl-1H-pyrazol-4-yl)-6-(1H-pyrazol-5-yl)picolinamide], in that order: less than 100 nM and greater than 60%.
`NC(=O)c1nn(-c2ccc(N3CCN(CC4CCN(c5ccc(NC6CCC(=O)NC6=O)cc5F)C4)CC3)cc2)cc1NC(=O)c1cccc(C(F)(F)F)n1` (stereo not shown) [Compound A361, N-(3-Carbamoyl-1-(4-(4-((1-(4-((2,6-dioxopiperidin-3-yl)amino)-2-fluorophenyl)pyrrolidin-3-yl)methyl)piperazin-1-yl)phenyl)-1H-pyrazol-4-yl)-6-(trifluoromethyl)picolinamide formate]: the DC50 is 100 to 1000 nM and the maximal degradation (Dmax) was 40 to 60%.
Take `NC(=O)c1nn(-c2ccc(N3CCN(C4CCN(c5ccc(NC6CCC(=O)NC6=O)cc5F)CC4)CC3)cc2)cc1NC(=O)c1cccc(C(F)(F)F)n1` (stereo not shown) [Compound A365, 1-{4-[4-(1-{4-[(2,6-dioxopiperidin-3-yl)amino]-2-fluorophenyl}piperidin-4-yl)piperazin-1-yl]phenyl}-4-({[6-(trifluoromethyl)pyridin-2-yl]carbonyl}amino)pyrazole-3-carboxamide]: the DC50 was less than 100 nM and the Dmax was greater than 60%.
For the compound `Cn1c(=O)n(C2CCC(=O)NC2=O)c2cccc(N3CCC(C(=O)N4CCN(c5ccc(-n6cc(NC(=O)c7cccc(C(F)(F)F)n7)c(C(N)=O)n6)cc5)CC4)CC3)c21` (stereo not shown) [Compound A368, N-(3-Carbamoyl-1-(4-(4-(1-(1-(2,6-dioxopiperidin-3-yl)-3-methyl-2-oxo-2,3-dihydro-1H-benzo[d]imidazol-4-yl)piperidine-4-carbonyl)piperazin-1-yl)phenyl)-1H-pyrazol-4-yl)-6-(trifluoromethyl)picolinamide], the DC50 is less than 100 nM and the Dmax is greater than 60%.
On to `Cn1c(=O)n(C2CCC(=O)NC2=O)c2cccc(N3CCC(CN4CCN(c5ccc(-n6cc(NC(=O)c7cccc(C(F)(F)F)n7)c(C(=O)NC7CC7)n6)cc5)CC4)CC3)c21` (stereo not shown) [Compound A369, N-{3-[(cyclopropylamino)carbonyl]-1-{4-[4-({1-[1-(2,6-dioxopiperidin-3-yl)-3-methyl-2-oxobenzo[d]imidazol-4-yl]piperidin-4-yl}methyl)piperazin-1-yl]phenyl}pyrazol-4-yl}-6-(trifluoromethyl)pyridine-2-carboxamide formate], for which the DC50 is less than 100 nM and the greatest degradation seen (Dmax) is greater than 60%.
Regarding `Cn1c(=O)n(C2CCC(=O)NC2=O)c2cccc(CN3CCC(N4CCN(c5ccc(-n6cc(NC(=O)c7cccc(C(F)(F)F)n7)c(C(N)=O)n6)cc5)CC4)CC3)c21` (stereo not shown) [Compound A372], the half-maximal degradation concentration (DC50) was less than 100 nM and the greatest degradation seen (Dmax) is greater than 60%.
Turning to `Cn1c(=O)n(C2CCC(=O)NC2=O)c2cccc(N3CCC(N4CCN(Cc5ccc(-n6cc(NC(=O)c7cccc(C(F)(F)F)n7)c(C(N)=O)n6)cc5)CC4)CC3)c21` (stereo not shown) [Compound A373, N-(3-Carbamoyl-1-(4-(4-(1-(1-(2,6-dioxopiperidin-3-yl)-3-methyl-2-oxo-2,3-dihydro-1H-benzo[d]imidazol-4-yl)piperidin-4-yl)piperazin-1-yl)methyl)phenyl)-1H-pyrazol-4-yl)-6-(trifluoromethyl)picolinamide formate], the 50% degradation concentration (DC50) was less than 100 nM and the Dmax is greater than 60%.
